Data as given in PubChem BioAssay (NCI).
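Grown in 96-well plates, cells were treated for 48 hours with each compound at five concentrations. Insufficient inhibition: endpoint recorded as highest concentration tested. TGI is the concentration that stops growth completely.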

Columns and labels:
Assay in all cases: inhibition of tumour cell growth, NCI panel, 48 h
[1] = tested on: SF-295 CNS
[2] = tested on: MALME-3M melanoma
[3] = tested on: 786-0 renal
[4] = tested on: HCT-15 colon
[5] = tested on: A549 NSCLC
[6] = tested on: NCI-H226 lung
[7] = tested on: SN12C renal
[8] = tested on: OVCAR-8 ovarian
[9] = tested on: MDA-MB-435
[10] = tested on: NCI-H460 lung
[11] = tested on: T-47D breast
[12] = tested on: M14 melanoma
[13] = tested on: MCF7 breast
[14] = tested on: HOP-62 NSCLC
[15] = tested on: SW-620 colon
[16] = tested on: NCI/ADR-RES ovarian
[17] = tested on: PC-3 prostate
[18] = tested on: A498 renal
[19] = tested on: SK-MEL-28 melanoma
[20] = tested on: MDA-N
[21] = tested on: EKVX NSCLC
[22] = tested on: SK-OV-3 ovarian
[23] = tested on: OVCAR-4 ovarian
[24] = tested on: SNB-75 CNS
[25] = tested on: SK-MEL-2 melanoma
[26] = tested on: CAKI-1 renal
[27] = tested on: KM12 colon
[28] = tested on: UACC-62 melanoma
[29] = tested on: K-562 leukemia
[30] = tested on: MOLT-4 leukemia
[31] = tested on: ACHN renal
[32] = tested on: COLO 205 colon
[33] = tested on: SF-539 CNS
[34] = tested on: HT29 colon
[35] = tested on: SNB-19 CNS
[36] = tested on: SF-268 CNS
[37] = tested on: RXF 393 renal
[38] = tested on: DU-145 prostate
[39] = tested on: CCRF-CEM leukemia
[40] = tested on: U251 CNS
[41] = tested on: HCT-116 colon
[42] = tested on: OVCAR-3 ovarian
[43] = tested on: HCC-2998 colon
[44] = tested on: UO-31 renal
[45] = tested on: MDA-MB-231 breast
[46] = tested on: OVCAR-5 ovarian
[47] = tested on: BT-549 breast
[48] = tested on: RPMI-8226 leukemia
[49] = tested on: UACC-257 melanoma
[50] = tested on: NCI-H23 lung
[51] = tested on: HL-60(TB) leukemia
[52] = tested on: SR leukemia
[53] = tested on: LOX IMVI melanoma
[54] = tested on: IGROV1 ovarian
[55] = tested on: TK-10 renal
[56] = tested on: HOP-92 NSCLC
[57] = tested on: NCI-H522 lung
[58] = tested on: SK-MEL-5 melanoma

CC(C)(C)OC/C=C(\Br)CO
TGI [1]: > 100 µM | TGI [2]: > 100 µM | TGI [3]: > 100 µM | TGI [4]: > 100 µM | TGI [5]: > 100 µM | TGI [6]: > 100 µM | TGI [7]: > 100 µM | TGI [8]: > 100 µM | TGI [9]: > 100 µM | TGI [10]: > 100 µM | TGI [11]: > 100 µM | TGI [12]: > 100 µM | TGI [13]: > 100 µM | TGI [14]: > 100 µM | TGI [15]: > 100 µM | TGI [16]: > 100 µM | TGI [17]: > 100 µM | TGI [18]: > 100 µM | TGI [19]: > 100 µM | TGI [20]: > 100 µM | TGI [21]: > 100 µM | TGI [22]: > 100 µM | TGI [23]: > 100 µM | TGI [24]: > 100 µM | TGI [25]: > 100 µM | TGI [26]: > 100 µM | TGI [27]: > 100 µM | TGI [28]: > 100 µM | TGI [29]: > 100 µM | TGI [30]: > 100 µM | TGI [31]: > 100 µM | TGI [32]: > 100 µM | TGI [33]: > 100 µM | TGI [34]: > 100 µM | TGI [35]: > 100 µM | TGI [36]: > 100 µM | TGI [37]: > 100 µM | TGI [38]: > 100 µM | TGI [39]: > 100 µM | TGI [40]: > 100 µM | TGI [41]: > 100 µM | TGI [42]: > 100 µM | TGI [43]: > 100 µM | TGI [44]: > 100 µM | TGI [45]: > 100 µM | TGI [46]: > 100 µM | TGI [47]: > 100 µM | TGI [48]: > 100 µM | TGI [49]: > 100 µM | TGI [50]: > 100 µM

CCCCN(CCCC)CC(O)c1cc(-c2ccc(Cl)c(Cl)c2)nc2c(Cl)cc(Cl)cc12 (centres undefined)
TGI [1]: > 100 µM | TGI [2]: > 100 µM | TGI [3]: > 100 µM | TGI [4]: > 100 µM | TGI [51]: > 100 µM | TGI [7]: > 100 µM | TGI [8]: > 100 µM | TGI [9]: > 100 µM | TGI [10]: > 100 µM | TGI [11]: > 100 µM | TGI [13]: > 100 µM | TGI [52]: > 100 µM | TGI [14]: > 100 µM | TGI [15]: 39.1 µM | TGI [53]: > 100 µM | TGI [16]: > 100 µM | TGI [17]: > 100 µM | TGI [18]: > 100 µM | TGI [19]: > 100 µM | TGI [20]: > 100 µM | TGI [21]: > 100 µM | TGI [22]: > 100 µM | TGI [23]: > 100 µM | TGI [24]: > 100 µM | TGI [25]: > 100 µM | TGI [28]: > 100 µM | TGI [30]: > 100 µM | TGI [31]: > 100 µM | TGI [32]: > 100 µM | TGI [33]: > 100 µM | TGI [34]: > 100 µM | TGI [54]: > 100 µM | TGI [35]: > 100 µM | TGI [36]: > 100 µM | TGI [38]: > 100 µM | TGI [39]: > 100 µM | TGI [40]: > 100 µM | TGI [41]: > 100 µM | TGI [42]: > 100 µM | TGI [43]: > 100 µM | TGI [44]: > 100 µM | TGI [45]: > 100 µM | TGI [46]: > 100 µM | TGI [48]: > 100 µM | TGI [55]: > 100 µM | TGI [49]: > 100 µM | TGI [50]: > 100 µM

COc1ccc2c(c1)OCC1Cc3cc4c(cc3OC21)OCO4 (centres undefined)
TGI [1]: > 100 µM | TGI [2]: > 100 µM | TGI [3]: > 100 µM | TGI [4]: > 100 µM | TGI [5]: > 100 µM | TGI [6]: > 100 µM | TGI [7]: > 100 µM | TGI [8]: > 100 µM | TGI [9]: 34.7 µM | TGI [11]: > 100 µM | TGI [12]: > 100 µM | TGI [13]: > 100 µM | TGI [52]: > 100 µM | TGI [14]: > 100 µM | TGI [15]: > 100 µM | TGI [53]: 52.4 µM | TGI [16]: > 100 µM | TGI [17]: > 100 µM | TGI [18]: > 100 µM | TGI [20]: 13.8 µM | TGI [21]: > 100 µM | TGI [22]: > 100 µM | TGI [56]: > 100 µM | TGI [25]: 86.9 µM | TGI [26]: > 100 µM | TGI [27]: > 100 µM | TGI [57]: > 100 µM | TGI [28]: > 100 µM | TGI [29]: > 100 µM | TGI [30]: > 100 µM | TGI [31]: > 100 µM | TGI [32]: > 100 µM | TGI [33]: > 100 µM | TGI [34]: > 100 µM | TGI [54]: > 100 µM | TGI [35]: > 100 µM | TGI [36]: > 100 µM | TGI [38]: > 100 µM | TGI [39]: > 100 µM | TGI [40]: > 100 µM | TGI [41]: > 100 µM | TGI [42]: > 100 µM | TGI [43]: > 100 µM | TGI [44]: > 100 µM | TGI [45]: > 100 µM | TGI [46]: > 100 µM | TGI [47]: > 100 µM | TGI [48]: > 100 µM | TGI [55]: 81.1 µM | TGI [49]: > 100 µM | TGI [58]: 57.2 µM | TGI [50]: > 100 µM
